Consider 89 compounds from a melting point compilation (Tetko et al.; mined from patent text by program, amines drawn as free bases though some values may be those of a salt).

Structures are written as SMILES. Where only a bound is given, the exact number is not on record here.

As usually defined, the melting point is the temperature, or range, at which the solid turns liquid. `CCc1c(-c2cc(C)c(OC)c(C)c2)[nH]c2ccccc12` displayed a melting point of 126 to 127 °C.
In the case of `COCc1cc2c(C(=O)Nc3c(C)noc3C)ccc(OC)c2o1`, the melting point is 168 to 170 °C.
As for `O=C(O)CC1(O)CCC(N2CCC(Nc3ccncc3)CC2)CC1` (centres undefined), the melting point came to 261 °C.
Consider `Cc1ccc(-c2cccc(/C=C/C(=O)Nc3ccc(Cc4ccccn4)cc3)c2)cc1`, for which the melting point lay in the range of 169 to 171 °C.
Next, `CCCCCCCCC[C@@H](CC(N)=O)N(CCC)C(=O)[C@H](CCCC(=O)O)NC(=O)c1cn(Cc2ccccc2)c2ccccc12`: 155 to 160 °C; `CCCCCS(=O)(=O)NC(=O)CCc1ccc(OC(C)C)cc1Oc1ncc(C(F)(F)F)cc1Cl`: 94 to 95 °C.
With `Cc1noc2ccc([N+](=O)[O-])cc12`, the melting point was in the range of 84.5 to 86.5 °C.
`NC(C(=O)O)c1ccsc1` (centres undefined) came in with a melting point of 283 to 285 °C.
Next, `COC(=O)c1csc2c(=O)cc(C3CCCCC3)oc12`: 114 to 119 °C.
In turn, `COc1ccc(S(=O)(=O)Nc2cccnc2Nc2ccccc2F)cc1` had a melting point of 148 to 150 °C.
The result for `COc1ccc(Cn2nc(CO)c3ccccc32)cc1` reads 95 to 97 °C.
Next, `COC(=O)c1cc(-c2ccncc2)[nH]c1-c1ccncc1`: more than 270 °C; `CCc1nc2c(-c3ccc(OC)cc3Cl)ncnc2n1C(C1CC1)C1CC1`: 139 to 140 °C; `CC1CN(c2ccc(N)cc2)CC(C)N1` (centres undefined): 124 to 125 °C.
The result for `CCOC(=O)COc1cccc2c1CCC(Br)C2=O` (centres undefined) reads 74 to 75 °C; that for `COC(=O)c1nc2ccc(CO)cc2cc1C`, 84.2 °C.
`O=C(NCCN1CCOCC1)c1ccc(-c2ccc3nnn(Cc4ccc5ncccc5c4)c3n2)cc1`: the melting point was 146 to 149 °C.
The result for `CC(C)(C)OC(=O)Nc1ccc(-c2ccc(Cl)c(Cl)c2)cc1N` reads 169 to 171 °C; that for `COc1ccc2[nH]c([S+]([O-])Cc3ncc(C)c(OC)c3C)nc2n1` (centres undefined), 224 to 226 °C.
The result for `CCc1cc(C(=O)O)c(Nc2ccccc2[N+](=O)[O-])s1` reads 189 to 191 °C.
As for `COc1ccc(-c2cc(=O)c3cc(OCCCCCCN4CCC(O)CC4)ccc3o2)cc1`, the melting point lay within 134 to 135 °C.
Next, `CC(C)(C)c1ccc(NC=CS(=O)(=O)F)cc1`: 67 to 70.5 °C; `O=C(Nc1nc2ccc(Sc3nnc4ccc(-c5cnn(CCOC6CCCCO6)c5)cn34)cc2s1)C1CC1` (centres undefined): 110 °C; `OCc1ccc(Cn2c(CC3CCN(CCNc4ccc(Cl)nn4)CC3)nc3ccccc32)o1`: 188 °C.
`O=Cc1ccc(N(CCO)CCO)cc1`: the melting point lay in the range of 63 to 64 °C.
In the case of `O=C(O)COc1cccc2c1CCc1sc(SCc3ccccc3)nc1-2`, the melting point is 180 to 182 °C.
Consider `Nc1ncc(Br)cc1O`, for which the melting point was in the range of 195 to 197 °C.
Next, `CCOC(=O)c1c(O)c2cccnc2n(CCc2ccccc2)c1=O`: 121 to 123 °C.
The result for `O=c1c2ccc(Cl)cc2[nH]c2c(O)nn(-c3ccc(OC(F)(F)F)cc3)c(=O)c12` reads 320 to 322 °C; that for `CS(=O)(=O)OCc1cn(-c2ccc(N3CCOCC3)c(F)c2)nn1`, 158 °C; that for `Cc1[nH]ncc1C(=O)O`, 223 °C.
Consider `N#Cc1ccc2[nH]cc(C3=CCN(CC4COc5cccnc5O4)CC3)c2c1` (centres undefined), for which the melting point was 165 °C.
Next, `COc1cc(N)c(Cl)cc1C(=O)CCC1CCN(C(=O)OC(C)(C)C)CC1`: 133 to 134 °C; `Cc1ccc(-c2ccc(Cl)c(C(=O)NCC34CC5CC(CC(C5)C3)C4)c2)nc1C(=O)O`: 180 to 185 °C; `CCC(C(=O)C(C)C(O)C(C)CCC1=C(C(=O)O)C(O)=C(C)CC1=[N+]=[N-])C1OC(CC)(C2CCC(O)(CC)C(C)O2)CC1C` (centres undefined): 137 to 138 °C.
Next, `CN1CC(CCCl)Oc2ncc(-c3ccccc3)cc2C1=S` (centres undefined): 156 to 158 °C; `CCOc1ccc(S(=O)(=O)N2CCN(C)CC2)cc1-c1nc2c(COC)nn(C)c2c(=O)[nH]1`: 198 to 199 °C.
The result for `NC(=S)NC1Cc2ccccc2C1` reads 155 °C; that for `COC(=O)c1nc(Cl)sc1-c1cccc(F)c1`, 99 to 100 °C; that for `NC(CCCSc1nccc(NC(N)=NCC(F)(F)F)n1)=NO`, 137 to 139 °C.
Consider `Cc1cc(-c2cc(C(F)(F)F)n3ncc(-c4ccncc4)c3n2)ccc1C(F)(F)F`, for which the melting point was 227 °C.
The result for `COc1ccc(Nc2ccccc2C(=O)CS(C)=O)cc1` (centres undefined) reads 115 to 116 °C.
Next, `COc1ccc(Nc2cccc(Cl)c2[N+](=O)[O-])cc1`: 73 to 74 °C; `Cc1nc(-n2ccc(C(F)(F)F)cc2=O)sc1C(=O)NCc1ccccc1`: 197 to 198 °C; `CC(=O)c1c(-c2ccc(F)cc2)nc2occn12`: 173 °C.
Next, `Cc1oc(-c2ccccc2)nc1COc1ccc2c(-c3ccccc3)c(CCl)oc2c1`: 129 to 130 °C; `CCOC(=O)/C=C/c1ccc(OCCN2CCCC2=O)cc1OCc1ccccc1`: 94 to 97 °C.
`Clc1ccc(N2CCCCC2)cc1` displayed a melting point of 69 °C.
The compound `CCSc1nc(-c2ccc(O)cc2)cn1C` displayed a melting point of 210 °C.
The compound `CC(C)(C)c1ccc([N+](=O)[O-])c(C(=O)O)c1` returned a melting point of 137 to 139 °C.
Next, `O=C(O)c1ccc(CO)cc1O`: 179 to 180 °C; `CC1=C(C(=O)OC(C)C)C(c2cccc([N+](=O)[O-])c2)n2c(cc(=O)n2C(=O)OC(C)C)N1` (centres undefined): 162 to 164 °C.
The result for `Cc1ccc(S(=O)(=O)N2[C@@H](CCc3nnco3)CC[C@H]2c2ccc(F)cc2)cc1` (racemic) reads 138 °C.
Next, `O=C(NCC(S)CO)OCc1ccc([N+](=O)[O-])cc1` (centres undefined): 65 to 67 °C.
As for `CCOC(=O)c1ccc(N2Cc3ccccc3C2=O)cc1`, the melting point was 182 to 184 °C.
Consider `CC1(C)C(C(=O)O)C1(C)C`, for which the melting point amounted to 120 °C.
In turn, `CC(=O)CNc1ccc(/C=C/C(=O)O)cc1` returned a melting point of 213 to 215 °C.
The result for `CCOC(=O)Oc1ccc(C=CC(=O)NC2CCCNC(=O)C2)cc1` (centres undefined) reads 209 to 210 °C; that for `CCOC(=O)c1c(-c2ccc(F)cc2)c(-c2ccc(F)cc2)cn1C(C)C`, 49 °C.
Next, `CC(C)(C)OC(=O)COc1cc(NC(=O)OC(C)(C)C)c([N+](=O)[O-])cc1C#Cc1ccccc1`: 130 °C; `CCCc1nc(CO)c(C(=O)O)n1Cc1cc2c(cc1Cl)OCO2`: 240 °C.
Next, `O=c1sc2cc(C(F)(F)F)cc([N+](=O)[O-])c2s1`: 110 to 111 °C.
In the case of `C=C(C)OC(=O)N1C(=O)[C@H](C)Nc2nc(Cl)ccc21`, the melting point was 86 to 87 °C.
The result for `CCC1=C(C)CN(C(=O)NC2COc3cc(OC)c(S(=O)(=O)NC(=O)NC)cc3C2)C1=O` (centres undefined) reads 245 to 246 °C; that for `CCc1cccc(C)c1CNc1cc(C(=O)NCCO)nc2c1nc(C)n2C`, 256 to 258 °C; that for `CCOC(=O)CCc1cn(-c2ccc(C(F)(F)F)cn2)nc1C`, 50 to 51 °C.
As to `CCOC(=O)/C=C/c1cnn(C)c1-c1cccs1`, the melting point fell in the range of 73 to 74 °C.
`N#Cc1nn(-c2c(Cl)cc(C(F)(F)F)cc2Cl)cc1C1C=CCCCC1` (centres undefined) returned a melting point of 106 to 107 °C.
The result for `O=[N+]([O-])c1ccc(OCc2nnco2)cc1` reads 125 to 126 °C.
`COC(=O)c1cc(OCC=C(Cl)Cl)cc(Cl)c1OCC=C(Cl)Cl` returned a melting point of 63 °C.
Turning to `O=C(O)c1cc(Br)c2cccnc2c1O`, the melting point is 244 to 246 °C.
`O=C1c2ccc([N+](=O)[O-])cc2C(=O)N1C1CCN(Cc2cccnc2)CC1` showed a melting point of 143 to 144 °C.
The result for `COc1ccc(Cn2cnc3c(Cl)nc(C(F)(F)F)nc32)cc1` reads 104 to 106 °C.
Next, `Cc1cc(F)ccc1-n1c(CF)nc2ccc(N)cc2c1=O`: 193 to 196 °C.
As for `COc1ccc(-c2cc3nc(N4CCC4)c4ccccc4c3nn2)cc1`, the melting point fell in the range of 196 to 198 °C.
The compound `Cc1cc(OCc2ccc(-c3ccc(OC(F)(F)F)cc3)nc2)ccc1OC(C)(C)C(=O)O` had a melting point of 146 to 148 °C.
Next, `O=C(NCc1ccc(Cl)cc1)c1cn2c3c(cc(CN4CCOCC4)cc3c1=O)OC(CNCc1ccncc1)C2` (centres undefined): 164 to 167 °C; `CN(Cc1ccccc1)[C@@H](CC(N)=O)C(=O)N[C@@H](Cc1ccccc1)[C@H](O)C(=O)N1CCC[C@H]1C(=O)NC(C)(C)C`: 97 to 100 °C.
Turning to `O=C1NN=C(c2ccc(NC(=O)C3CC3(Cl)Cl)cc2)C2CC12` (centres undefined), the melting point was in the range of 264 to 265 °C.
The result for `COc1c(N2CC[C@@H](O)[C@H](C)C2)c(F)c(N)c2c(=O)c(C(=O)O)cn(C3CC3)c12` (relative stereo) reads 240 to 244 °C; that for `O=C(c1ccccc1)N1CCc2cc(CCl)ccc21`, 108 to 110 °C; that for `CCOC(=O)c1nnc(SC)nc1NCc1ccc(OC)c(Cl)c1`, 101 to 105 °C.
In turn, `COC(=O)c1sccc1NC(=S)N1CCN(c2ncnc3cc(OC)c(OC)cc23)CC1` registered a melting point of 226 to 228 °C.
Turning to `O=C(O)CCCOc1cccc(OCCC(c2ccccc2)(c2ccccc2)c2ccccc2)c1`, the melting point lay within 53 to 55 °C.
Next, `COCCOCCn1cc(C(=O)NCc2ccc(Cl)cc2)c(=O)c2cc(CN(C)[C@H](C)[C@@H](O)c3ccccc3)ccc21`: 106 to 109 °C; `CC(=O)NCC1CN(c2ccc(N3CCC(=C(C)C#N)C(F)C3)c(F)c2)C(=O)O1` (centres undefined): 148 to 150 °C; `CC(C)N1C(=O)C(=O)NC1=NC(=N)Nc1ccc(Cl)c(Cl)c1`: 230 °C.
Next, `O=c1ncc(C(F)(F)F)c[nH]1`: 154 °C.
Next, `CN1CCN(c2cccc3c2C[C@H](NC(=O)CCc2ccccc2)CC3)CC1`: 184 to 186 °C.
